# Source: patent US20210323976A1, “HETEROARYL COMPOUNDS FOR KINASE INHIBITION” (ARIAD Pharmaceuticals, Inc., priority 2015, published 2021)
# Key:
# Assay type in all cases: cell-based
# [1] = target: T1, EGFR exon 19 deletion (E746-A750) and T790M mutation (Homo sapiens, UniProt P00533, DEL746-750/T790M); experiment: Ba/F3-EGFR-Del/T790M cell anti-proliferation assay (MTS); details: Ba/F3-EGFR-Del/T790M cells, 72 h, MTS signal
# T1 construct: expressed in transfected cells; host or cells: Ba/F3 (murine pro-B) cells, lentiviral transduction with pLVX-IRES puro
# From the text: A compound's ability in selectively inhibiting EGFR exon 19 deletion and T790M concurrent mutations can be assessed using Ba/F3 cells, a murine pro-B cell line, which have been transduced with EGFR exon 19 deletion and T790M mutation. An expression vector, pLVX-IRES puro (Clontech) coding for human EGFR E746-A750 deletion and T790M Mutation, was transfected into HEK293 cells by the Trans-Lentiviral ORF Packaging System (Thermo Scientific), to produce virus encoding EGFR exon 19 deletion and T790M mutations. Ba/F3 (DSMZ) cells maintained in RPM11640 medium supplemented with 10% fetal bovine serum, 200 pM L-glutamine/200 μg/mL penicillin/200 μg/mL streptomycin (Life Technology) and 10 ng/mL IL-3 (R&D system), were infected by EGFR E746-A750 deletion and T790M Mutation virus and subsequently selected by puromycin (Life Technology) selection and IL-3 depletion. Ba/F3 cells expressing EGFR E746-A750 deletion and T790M Mutation (named Ba/F3-EGFR-Del/T790M) can proliferate in the absence of IL-3. The anti-proliferative activity of compounds was determined as follows: BaF3-EGFR-Del/T790M cells seeded in 96 well plates (2500 cells/well) were treated with test compound (dissolved in DMSO) at a series of concentrations (4-fold dilution, top concentration: 10,000 nM). The plates were incubated for 72 h in a 37° C. incubator with 5% CO2, and the number of viable cells in each well were measured indirectly by CellTiter 96® Aqueous One Solution Cell Proliferation Assay (Promega; this assay is a colorimetric method for determining the number of viable cells through measurement of their metabolic activity by detection of enzymatic conversion of tetrazolium salts into blue formazan derivatives). Reagent (20 pL) was added into each well, and the plates were returned to the incubator for 2 h. The absorbance in each well was then measured at 490 nm using an Envision plate reader (Perkin Elmer). IC50 values were calculated by determining the concentration of compound required to decrease the MTS signal by 50% comparing to the DMSO control in best-fit curves using Microsoft XLfit software or Accelrys Pipeline Pilot.
# [2] = target: EGFR exon 20 NPG insertion (H773_V774insNPG) (Homo sapiens, UniProt P00533, cells depend on it, form not given); experiment: Ba/F3-EGFR-Exon20-NPG cell anti-proliferation assay (MTS, CellTiter 96 AQueous One); details: 72 h, MTS signal
# From the text: (§1) A compound's ability in selectively inhibiting EGFR exon 20 insertion mutations can be assessed using Ba/F3 cells, a murine pro-B cell line, which have been transduced with EGFR exon 20 insertions. An expression vector, pLVX-IRES puro (Clontech) coding for human EGFR exon 20 insertions NPG (H773_V774insNPG) or ASV (V769_D770insASV), was transfected into HEK293 cells by the Trans-Lentiviral ORF Packaging System (Thermo Scientific), to produce virus encoding EGFR exon 20 insertions. Ba/F3 (DSMZ) cells maintained in RPM11640 medium supplemented with 10% fetal bovine serum, 200 pM L-glutamine/200 µg/mL penicillin/200 µg/mL streptomycin (Life Technology) and 10 ng/mL IL-3 (R&D system), were infected by EGFR Exon20 virus and subsequently selected by puromycin (Life Technology) selection and IL-3 depletion. Ba/F3 cells expressing EGFR exon 20 insertions (named Ba/F3-EGFR-Exon20-NPG or Ba/F3-EGFR-Exon20-ASV) can proliferate in the absence of IL-3. The anti-proliferative activity of compounds were determined as follows: BaF3-EGFR-Exon20 cells (NPG or ASV) seeded in 96 well plates (2500 cells/well) were treated with test compound (dissolved in DMSO) at a series of concentrations (4-fold dilution, top concentration: 10,000 nM). The plates were incubated for 72 h in a 37° C. incubator with 5% CO2, and the number of viable cells in each well were measured indirectly by CellTiter 96® Aqueous One Solution Cell Proliferation Assay (Promega) This assay is a colorimetric method for determining the number of viable cells through measurement of their metabolic activity by detection of enzymatic conversion of tetrazolium salts into blue formazan derivatives. Reagent (20 pL) was added into each well, and the plates were returned to the incubator for 2 h. The absorbance in each well was then measured at 490 nm using an Envision plate reader (Perkin Elmer). IC50 values were calculated by determining the concentration of compound required to decrease the MTS signal by 50% comparing to the DMSO control in best-fit curves using Microsoft XLfit software or Accelrys Pipeline Pilot.
# [3] = target: T2, EGFR exon 20 ASV insertion (V769_D770insASV) (Homo sapiens, UniProt P00533, INS769ASV); experiment: Ba/F3-EGFR-Exon20-ASV cell anti-proliferation assay (MTS, CellTiter 96 AQueous One); details: Ba/F3-EGFR-Exon20-ASV cells, 72 h, MTS signal
# T2 construct: expressed in transfected cells; host or cells: Ba/F3 (murine pro-B) cells, lentiviral transduction with pLVX-IRES puro
# From the text: as §1
# [4] = target: T3, Her2 exon 20 YVMA insertion (A775_G776ins YVMA) (Homo sapiens, UniProt P04626, INS775YVMA); experiment: Ba/F3-Her2 Exon20 YVMA cell anti-proliferation assay (MTS); details: Ba/F3-Her2 Exon20 YVMA cells, 72 h, MTS signal
# T3 construct: expressed in transfected cells; host or cells: Ba/F3 (murine pro-B) cells, lentiviral transduction with pLVX-IRES puro
# From the text: A compound's ability in selectively inhibiting Her2 exon 20 YVMA insertion mutations can be assessed using Ba/F3 cells, a murine pro-B cell line, which have been transduced with Her2 Exon20 YVMA insertions. An expression vector, pLVX-IRES puro (Clontech) coding for human EGFR exon 20 insertions YVMA (A775_G776ins YVMA), was transfected into HEK293 cells by the Trans-Lentiviral ORF Packaging System (Thermo Scientific), to produce virus encoding EGFR exon 20 insertions. Ba/F3 (DSMZ) cells maintained in RPM11640 medium supplemented with 10% fetal bovine serum, 200 pM L-glutamine/200 μg/mL penicillin/200 μg/mL streptomycin (Life Technology) and 10 ng/mL IL-3 (R&D system), were infected by EGFR Exon20 virus and subsequently selected by puromycin (Life Technology) selection and IL-3 depletion. Ba/F3 cells expressing Her2 Exon20 YVMA insertions (named Ba/F3-Her2 Exon20 YVMA) can proliferate in the absence of IL-3. The anti-proliferative activity of compounds was determined as follows: BaF3-Her2 Exon20 YVMA cells seeded in 96 well plates (2500 cells/well) were treated with test compound (dissolved in DMSO) at a series of concentrations (4-fold dilution, top concentration: 10,000 nM). The plates were incubated for 72 h in a 37° C. incubator with 5% CO2, and the number of viable cells in each well were measured indirectly by CellTiter 96® Aqueous One Solution Cell Proliferation Assay (Promega; this assay is a colorimetric method for determining the number of viable cells through measurement of their metabolic activity by detection of enzymatic conversion of tetrazolium salts into blue formazan derivatives). Reagent (20 pL) was added into each well, and the plates were returned to the incubator for 2 h. The absorbance in each well was then measured at 490 nm using an Envision plate reader (Perkin Elmer). IC50 values were calculated by determining the concentration of compound required to decrease the MTS signal by 50% comparing to the DMSO control in best-fit curves using Microsoft XLfit software or Accelrys Pipeline Pilot.
# T2 sequence (P00533 with tags, fused parts or gaps INS769ASV): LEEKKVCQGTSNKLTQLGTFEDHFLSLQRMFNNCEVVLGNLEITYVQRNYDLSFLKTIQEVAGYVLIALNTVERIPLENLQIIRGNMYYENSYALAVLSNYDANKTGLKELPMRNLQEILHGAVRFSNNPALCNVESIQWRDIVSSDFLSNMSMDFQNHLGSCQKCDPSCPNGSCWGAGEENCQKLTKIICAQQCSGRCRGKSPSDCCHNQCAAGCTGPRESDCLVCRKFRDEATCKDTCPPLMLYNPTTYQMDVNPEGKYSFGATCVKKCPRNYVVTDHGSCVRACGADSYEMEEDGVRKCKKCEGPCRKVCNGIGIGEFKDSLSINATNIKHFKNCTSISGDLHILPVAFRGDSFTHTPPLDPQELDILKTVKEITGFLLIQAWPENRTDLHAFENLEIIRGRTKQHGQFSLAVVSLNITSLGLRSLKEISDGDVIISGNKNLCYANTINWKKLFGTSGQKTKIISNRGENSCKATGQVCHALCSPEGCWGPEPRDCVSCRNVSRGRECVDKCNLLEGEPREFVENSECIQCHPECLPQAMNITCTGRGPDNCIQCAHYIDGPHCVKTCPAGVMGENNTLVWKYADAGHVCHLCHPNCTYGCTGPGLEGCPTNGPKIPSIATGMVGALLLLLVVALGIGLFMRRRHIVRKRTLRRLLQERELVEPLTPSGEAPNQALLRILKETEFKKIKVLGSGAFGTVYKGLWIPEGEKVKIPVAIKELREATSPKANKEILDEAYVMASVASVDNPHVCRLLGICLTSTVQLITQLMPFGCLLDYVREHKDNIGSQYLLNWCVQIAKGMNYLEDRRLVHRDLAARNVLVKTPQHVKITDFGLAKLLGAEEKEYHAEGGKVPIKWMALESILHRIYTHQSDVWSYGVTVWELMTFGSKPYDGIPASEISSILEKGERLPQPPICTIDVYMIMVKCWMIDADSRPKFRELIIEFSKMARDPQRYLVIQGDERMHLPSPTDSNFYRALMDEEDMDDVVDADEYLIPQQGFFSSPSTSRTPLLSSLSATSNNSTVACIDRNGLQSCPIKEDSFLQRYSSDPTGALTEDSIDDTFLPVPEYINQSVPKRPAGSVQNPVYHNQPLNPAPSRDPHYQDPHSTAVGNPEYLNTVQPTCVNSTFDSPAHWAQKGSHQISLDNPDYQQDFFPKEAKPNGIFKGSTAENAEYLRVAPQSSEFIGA
# T3 sequence (P04626 with tags, fused parts or gaps INS775YVMA): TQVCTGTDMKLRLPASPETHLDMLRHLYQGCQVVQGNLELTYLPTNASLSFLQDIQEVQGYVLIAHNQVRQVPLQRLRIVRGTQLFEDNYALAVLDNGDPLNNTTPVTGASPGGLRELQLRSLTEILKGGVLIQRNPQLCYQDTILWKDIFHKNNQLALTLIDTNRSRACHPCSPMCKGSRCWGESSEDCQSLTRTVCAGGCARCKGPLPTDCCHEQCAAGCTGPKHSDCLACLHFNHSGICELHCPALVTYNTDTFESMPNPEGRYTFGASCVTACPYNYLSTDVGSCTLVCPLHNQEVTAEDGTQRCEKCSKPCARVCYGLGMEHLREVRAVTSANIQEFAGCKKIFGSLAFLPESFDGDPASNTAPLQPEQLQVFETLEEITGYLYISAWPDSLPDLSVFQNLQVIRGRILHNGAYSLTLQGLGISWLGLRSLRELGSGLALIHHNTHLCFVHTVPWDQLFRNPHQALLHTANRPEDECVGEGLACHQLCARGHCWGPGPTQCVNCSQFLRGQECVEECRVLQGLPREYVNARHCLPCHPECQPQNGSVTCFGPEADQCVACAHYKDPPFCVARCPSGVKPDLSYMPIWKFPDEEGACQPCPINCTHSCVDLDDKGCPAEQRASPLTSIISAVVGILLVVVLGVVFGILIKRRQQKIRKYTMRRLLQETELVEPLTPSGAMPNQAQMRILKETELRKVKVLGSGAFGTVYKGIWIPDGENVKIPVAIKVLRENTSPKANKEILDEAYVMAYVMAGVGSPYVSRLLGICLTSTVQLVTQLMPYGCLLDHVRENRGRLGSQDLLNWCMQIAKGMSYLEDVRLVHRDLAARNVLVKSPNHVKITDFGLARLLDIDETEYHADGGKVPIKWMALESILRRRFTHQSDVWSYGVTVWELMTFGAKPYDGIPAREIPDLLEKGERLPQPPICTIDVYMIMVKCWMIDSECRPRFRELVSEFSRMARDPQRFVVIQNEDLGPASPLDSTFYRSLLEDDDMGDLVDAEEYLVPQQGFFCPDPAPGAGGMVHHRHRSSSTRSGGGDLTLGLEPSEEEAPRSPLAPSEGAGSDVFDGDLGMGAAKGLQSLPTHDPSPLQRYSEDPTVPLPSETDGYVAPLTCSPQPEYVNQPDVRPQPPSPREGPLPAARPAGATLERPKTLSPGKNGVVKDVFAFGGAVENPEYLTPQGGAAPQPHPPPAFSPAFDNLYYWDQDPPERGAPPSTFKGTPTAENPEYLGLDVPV
# T1 sequence (P00533 with tags, fused parts or gaps DEL746-750/T790M): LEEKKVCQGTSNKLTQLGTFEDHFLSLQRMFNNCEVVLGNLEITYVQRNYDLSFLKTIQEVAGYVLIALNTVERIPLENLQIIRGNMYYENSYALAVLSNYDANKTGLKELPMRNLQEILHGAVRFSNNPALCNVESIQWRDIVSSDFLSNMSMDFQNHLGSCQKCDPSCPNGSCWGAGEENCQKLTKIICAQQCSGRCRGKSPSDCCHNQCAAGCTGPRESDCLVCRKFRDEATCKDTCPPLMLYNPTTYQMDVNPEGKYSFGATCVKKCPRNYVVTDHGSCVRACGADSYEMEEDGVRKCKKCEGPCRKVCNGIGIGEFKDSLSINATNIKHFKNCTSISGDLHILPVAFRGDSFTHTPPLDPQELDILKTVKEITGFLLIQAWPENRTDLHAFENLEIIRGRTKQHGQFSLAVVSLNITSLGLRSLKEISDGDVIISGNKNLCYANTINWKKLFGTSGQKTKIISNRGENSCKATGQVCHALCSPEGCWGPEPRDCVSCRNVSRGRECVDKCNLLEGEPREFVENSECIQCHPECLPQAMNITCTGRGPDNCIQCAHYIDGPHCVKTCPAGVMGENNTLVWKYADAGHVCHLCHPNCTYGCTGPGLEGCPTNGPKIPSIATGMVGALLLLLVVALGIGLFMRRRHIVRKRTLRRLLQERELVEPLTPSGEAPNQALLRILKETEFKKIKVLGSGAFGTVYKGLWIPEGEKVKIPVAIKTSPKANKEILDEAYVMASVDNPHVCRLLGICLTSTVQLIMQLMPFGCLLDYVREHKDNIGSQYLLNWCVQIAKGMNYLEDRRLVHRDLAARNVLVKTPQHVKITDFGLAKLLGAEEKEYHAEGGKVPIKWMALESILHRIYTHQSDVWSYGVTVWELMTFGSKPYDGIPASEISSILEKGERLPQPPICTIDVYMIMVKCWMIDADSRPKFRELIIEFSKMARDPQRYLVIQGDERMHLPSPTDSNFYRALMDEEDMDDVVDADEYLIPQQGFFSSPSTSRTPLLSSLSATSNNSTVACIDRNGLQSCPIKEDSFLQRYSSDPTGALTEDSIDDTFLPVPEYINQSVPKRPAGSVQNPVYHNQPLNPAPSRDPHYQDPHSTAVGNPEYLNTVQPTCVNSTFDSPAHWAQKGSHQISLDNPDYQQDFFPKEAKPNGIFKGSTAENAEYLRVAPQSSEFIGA
# EGFR exon 20 NPG insertion (H773_V774insNPG), sequence (P00533 with tags, fused parts or gaps INS772GNP, form open): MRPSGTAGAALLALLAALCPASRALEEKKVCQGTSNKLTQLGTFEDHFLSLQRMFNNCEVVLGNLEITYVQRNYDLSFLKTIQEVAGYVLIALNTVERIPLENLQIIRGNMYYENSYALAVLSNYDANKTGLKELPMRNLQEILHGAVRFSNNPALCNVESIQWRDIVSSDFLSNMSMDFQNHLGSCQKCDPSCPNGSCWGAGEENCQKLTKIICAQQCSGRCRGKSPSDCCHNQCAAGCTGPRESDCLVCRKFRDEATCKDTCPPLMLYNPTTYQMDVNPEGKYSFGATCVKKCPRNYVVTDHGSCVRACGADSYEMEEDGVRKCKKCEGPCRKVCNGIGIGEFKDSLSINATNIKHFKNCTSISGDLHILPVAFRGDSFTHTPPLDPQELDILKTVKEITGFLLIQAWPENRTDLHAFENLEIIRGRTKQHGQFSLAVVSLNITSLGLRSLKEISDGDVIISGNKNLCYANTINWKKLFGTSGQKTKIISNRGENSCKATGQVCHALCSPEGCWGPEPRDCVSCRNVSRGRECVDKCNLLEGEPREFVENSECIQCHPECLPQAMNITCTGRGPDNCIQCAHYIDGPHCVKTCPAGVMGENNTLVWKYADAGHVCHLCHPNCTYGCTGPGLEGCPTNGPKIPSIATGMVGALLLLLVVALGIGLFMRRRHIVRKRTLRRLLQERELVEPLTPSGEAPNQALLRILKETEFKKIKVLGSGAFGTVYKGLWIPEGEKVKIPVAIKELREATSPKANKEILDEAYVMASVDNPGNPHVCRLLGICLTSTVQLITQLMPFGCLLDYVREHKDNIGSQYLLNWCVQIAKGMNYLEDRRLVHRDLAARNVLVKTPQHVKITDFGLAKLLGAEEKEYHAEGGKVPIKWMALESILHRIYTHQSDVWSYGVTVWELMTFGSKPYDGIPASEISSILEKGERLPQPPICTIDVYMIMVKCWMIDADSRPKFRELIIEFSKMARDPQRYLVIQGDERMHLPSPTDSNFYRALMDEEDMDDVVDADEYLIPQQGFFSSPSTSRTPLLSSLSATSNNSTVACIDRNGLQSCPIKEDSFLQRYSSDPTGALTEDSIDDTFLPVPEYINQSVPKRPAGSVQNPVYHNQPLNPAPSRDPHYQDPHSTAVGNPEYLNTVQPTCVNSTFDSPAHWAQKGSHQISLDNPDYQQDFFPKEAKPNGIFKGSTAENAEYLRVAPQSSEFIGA
Structure (SMILES),EGFR exon 19 deletion and T790M mutation IC50 [1],IC50 [2],IC50 [3],IC50 [4]
"C=CC(=O)Nc1cc(Nc2ncc(C#N)c(-c3c4n(c5ccccc35)CCOC4)n2)c(OC)cc1N(C)CCN(C)C [Example 8, N-(5-((5-cyano-4-(3,4-dihydro-1H-[1,4]oxazino[4,3-a]indol-10-yl)pyrimidin-2-yl)amino)-2-((2-(dimethylamino)ethyl)(methyl)amino)-4-methoxyphenyl)acrylamide]",A (Group A compounds have an IC50 value for the indicated mutant below about 100 nM),< 100 nM,100 to 500 nM,100 to 500 nM
"C=CC(=O)Nc1cc(Nc2ncc(Cl)c(-c3c4n(c5ccccc35)CCOC4)n2)c(OC)cc1N(C)CCN(C)C [Example 9, N-(5-((5-chloro-4-(3,4-dihydro-1H-[1,4]oxazino[4,3-a]indol-10-yl)pyrimidin-2-yl)amino)-2-((2-(dimethylamino)ethyl)(methyl)amino)-4-methoxyphenyl)acrylamide]",A (Group A compounds have an IC50 value for the indicated mutant below about 100 nM),500 to 1000 nM,> 1000 nM,> 1000 nM
